Laboratory results reported in patent US8049015B2 (Panmira Pharmaceuticals, LLC, priority 2008, dated 2011).

Target: T1, human DP2 receptor (Homo sapiens, UniProt Q9Y5Y4)
T1 construct: expressed in transfected cells
T1 sequence (Q9Y5Y4 1-395): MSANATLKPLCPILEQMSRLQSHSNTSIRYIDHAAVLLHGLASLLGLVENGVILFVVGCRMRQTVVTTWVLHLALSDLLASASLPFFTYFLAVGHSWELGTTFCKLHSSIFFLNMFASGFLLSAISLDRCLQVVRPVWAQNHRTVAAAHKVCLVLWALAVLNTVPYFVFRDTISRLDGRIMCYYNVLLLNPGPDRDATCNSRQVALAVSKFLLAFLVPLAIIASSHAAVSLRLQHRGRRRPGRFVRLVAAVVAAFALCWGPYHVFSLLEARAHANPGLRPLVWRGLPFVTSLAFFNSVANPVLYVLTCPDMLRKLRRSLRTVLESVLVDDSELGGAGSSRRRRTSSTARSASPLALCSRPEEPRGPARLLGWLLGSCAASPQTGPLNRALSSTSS
Assay: DP2/CRTH2 binding assay (radioligand binding with [3H]PGD2)
Settings: [3H]PGD2 binding, membranes of HEK293 cells expressing recombinant human DP2; read-out: hDP2
Protocol: The ability of a compound to bind to the human DP2 receptor is assessed via a radioligand binding assay using [^3H]PGD2. HEK293 cells stably expressing recombinant human DP2 are resuspended in 10 mM Hepes, 7.4 containing 1 mM DTT, lysed and centrifuged at 75,000×g to pellet the membranes. The membranes are resuspended in 10 mM Hepes, 7.4 containing 1 mM DTT and 10% glycerol to approximately 5 mg protein/ml. Membranes (2-10 μg protein/well) are incubated in 96-well plates with 1 nM [^3H]PGD2 and test compound in Assay Buffer (50 mM Hepes, 10 mM MnCl2, 1 mM EDTA, plus or minus 0.2% human serum albumin, pH 7.4) for 60 minutes at room temperature. The reactions are terminated by rapid filtration through Whatman GF/C glass fibre filter plates. The filter plates were pre-soaked in 0.33% polythylenimine for 30 minutes at room temperature then washed in Wash Buffer (50 mM Hepes, 0.5 M NaCl pH 7.4) prior to harvesting. After harvesting, the filter plates are washed 3 times with 1 ml cold Wash Buffer then dried. Scintillant is then added to the plates and the radioactivity retained on the filters is determined on a Packard TopCount (Perkin Elmer). Specific binding is determined as total radioactive binding minus non-specific binding in the presence of 10 μM PGD2. IC50s were determined using GraphPad prism analysis of drug titration curves.

For `CCN(Cc1cc(C(F)(F)F)ccc1-c1cc(CC(=O)O)cnc1OC)C(=O)C1CC1` [Compound 10, (5-{2-[(N-Cyclopropanecarbonyl-N-ethyl-amino)-methyl]-4-trifluoromethyl-phenyl}-6-methoxy-pyridin-3-yl)-acetic acid], the IC50 was < 300 nM.

`CC(=O)N(Cc1ccccc1)Cc1cc(C(F)(F)F)ccc1-c1cc(CC(=O)O)cnc1O` [Compound 26, (5-{2-[(N-Acetyl-N-benzyl-amino)-methyl]-4-trifluoromethyl-phenyl}-6-hydroxy-pyridin-3-yl)-acetic acid] was tested, and the IC50 was < 300 nM.

In the case of `CCN(Cc1cc(C(F)(F)F)ccc1-c1cncc(CC(=O)O)c1)C(=O)Cc1ccc(C)nc1` [Compound 37, {5-[2-({N-Ethyl-N-[2-(6-methyl-pyridin-3-yl)-acetyl]-amino}-methyl)-4-trifluoromethyl-phenyl]-pyridin-3-yl}-acetic acid], the IC50 is reported as < 300 nM.

For `CCN(Cc1cc(C(F)(F)F)ccc1-c1cc(CC(=O)O)cnc1OC)C(=O)NCc1ccccc1` [Compound 27, {5-[2-(3-Benzyl-1-ethyl-ureidomethyl)-4-trifluoromethyl-phenyl]-6-methoxy-pyridin-3-yl}-acetic acid], the IC50 was < 300 nM.

For `CCN(Cc1cc(C(F)(F)F)ccc1-c1cncc(CC(=O)O)c1)C(=O)C1CC1` [Compound 8, (5-{2-[(N-Cyclopropanecarbonyl-N-ethyl-amino)-methyl]-4-trifluoromethyl-phenyl}-pyridin-3-yl)-acetic acid], the IC50 was < 300 nM.

With `CCN(Cc1cc(C(F)(F)F)ccc1-c1cncc(CC(=O)O)c1)C(=O)OC(C)(C)C` [Compound 13, (5-{2-[(N-tert-Butoxycarbonyl-N-ethyl-amino)-methyl]-4-trifluoromethyl-phenyl}-pyridin-3-yl)-acetic acid] the IC50 was < 300 nM.

`CCN(Cc1cc(C(F)(F)F)ccc1-c1cc(CC(=O)O)cnc1OC)C(=O)COC` [Compound 42, [5-(2-{[N-Ethyl-N-(2-methoxy-acetyl)-amino]-methyl}-4-trifluoromethyl-phenyl)-6-methoxy-pyridin-3-yl]-acetic acid] was tested, and the IC50 was < 300 nM.

In the case of `O=C(O)Cc1cncc(-c2ccc(-c3nn[nH]n3)cc2CN(Cc2ccccc2)C(=O)C2CC2)c1` [Compound 4, {5-[2-[(N-Benzyl-N-cyclopropanecarbonyl-amino)-methyl]-4-(2H-tetrazol-5-yl)-phenyl]-pyridin-3-yl}-acetic acid], the IC50 is reported as < 300 nM.

`CCN(Cc1cc(C(F)(F)F)ccc1-c1cnc(Cl)c(CC(=O)O)c1)C(=O)C1CC1` [Compound 9, (2-Chloro-5-{2-[(N-cyclopropanecarbonyl-N-ethyl-amino)-methyl]-4-trifluoromethyl-phenyl}-pyridin-3-yl)-acetic acid] showed an IC50 of 300 to 1000 nM.

With `CC(=O)N(Cc1ccccc1)Cc1cc(C(F)(F)F)ccc1-c1cncc(CC(=O)O)c1` [Compound 18, (5-{2-[(N-Acetyl-N-benzyl-amino)-methyl]-4-trifluoromethyl-phenyl}-pyridin-3-yl)-acetic acid] the IC50 was < 300 nM.

Compound `CCN(Cc1cc(C(F)(F)F)ccc1-c1cncc(CC(=O)O)c1)C(=O)c1cnccn1` [Compound 29, [5-(2-{[N-Ethyl-N-(pyrazine-2-carbonyl)-amino]-methyl}-4-trifluoromethyl-phenyl)-pyridin-3-yl]-acetic acid] has an IC50 of 300 to 1000 nM.

For `CCN(Cc1cc(SC(C)(C)C)ccc1-c1cncc(CC(=O)O)c1)C(=O)C1CC1` [Compound 22, (5-{4-tert-Butylsulfanyl-2-[(N-cyclopropanecarbonyl-N-ethyl-amino)-methyl]-phenyl}-pyridin-3-yl)-acetic acid], the IC50 was < 300 nM.

With `N#Cc1ccc(-c2cncc(CC(=O)O)c2)c(CN(Cc2ccccc2)C(=O)C2CC2)c1` [Compound 3, (5-{2-[(N-Benzyl-N-cyclopropanecarbonyl-amino)-methyl]-4-cyano-phenyl}-pyridin-3-yl)-acetic acid] the IC50 was < 300 nM.

Work on `CCN(Cc1cc(C(F)(F)F)ccc1-c1cc(CC(=O)O)cnc1O)C(=O)C1CC1` [Compound 38, (5-{2-[(N-Cyclopropanecarbonyl-N-ethyl-amino)-methyl]-4-trifluoromethyl-phenyl}-6-hydroxy-pyridin-3-yl)-acetic acid] yielded an IC50 of 300 to 1000 nM.

For `CCN(Cc1cc(C(F)(F)F)ccc1-c1cncc(CC(=O)O)c1)C(=O)Cc1ccc(Cl)nc1` [Compound 31, {5-[2-({N-[2-(6-Chloro-pyridin-3-yl)-acetyl]-N-ethyl-amino}-methyl)-4-trifluoromethyl-phenyl]-pyridin-3-yl}-acetic acid], the IC50 was < 300 nM.

`CC(=O)N(Cc1ccccc1)Cc1cc(C(F)(F)F)ccc1-c1cnc(Cl)c(CC(=O)O)c1` [Compound 20, (5-{2-[(N-Acetyl-N-benzyl-amino)-methyl]-4-trifluoromethyl-phenyl}-2-chloro-pyridin-3-yl)-acetic acid] was tested, and the IC50 was < 300 nM.

`CCN(Cc1cc(C(=O)O)ccc1-c1cncc(CC(=O)O)c1)C(=O)C1CC1` [Compound 2, 4-(5-Carboxymethyl-pyridin-3-yl)-3-[(N-cyclopropanecarbonyl-N-ethyl-amino)-methyl]-benzoic acid] was tested, and the IC50 was < 300 nM.

`CCN(Cc1cc(SC)ccc1-c1cncc(CC(=O)O)c1)C(=O)C1CC1` [Compound 21, (5-{2-[(N-Cyclopropanecarbonyl-N-ethyl-amino)-methyl]-4-methylsulfanyl-phenyl}-pyridin-3-yl)-acetic acid] was tested, and the IC50 was < 300 nM.
